Literature values as cited in patent US4603221A, “Process for preparing substituted tetralones” (Ethyl Corporation, priority 1985, dated 1986).

Conditions: method generally in accordance with Gero et al., J. Org. Chem. 16, 1835-1838 (1951)

| Compound | pKa Value |
| --- | --- |
| Cc1ccnc(C)c1 [2,4-lutidine] | 6.79 |
| Cc1cccc(C)n1 [2,6-lutidine] | 6.62 |
